Results as given in paper PMC3038857, “Using Nuclear Receptor Activity to Stratify Hepatocarcinogens” (PLoS ONE, 2011).

Experiments:
LXR (NR1H3) = experiment: ATG_DR4_LXR_CIS: Factorial reporter gene assay (HepG2); type: cell-based, human; design: scale not given here; conditions: scale not given, looks like -log10 of molar active concentration, 0 = no activity
Description: A multiple reporter transcription unit (MRTU) library consisting of 48 transcription factor binding sites was transfected into the HepG2 human liver hepatoma cell line. In addition to the cis-acting reporter genes (CIS), a modification of the approach was used to generate a trans-system (TRANS) with a mammalian one-hybrid assay consisting of an additional 25 MRTU library reporting the activity of nuclear receptor super-family members. […] These assays were performed by Attagene Inc. (Morrisville NC) under contract to EPA.
In addition to the cis-acting reporter genes (CIS), a modification of the approach was used to generate a trans-system (TRANS) with a mammalian one-hybrid assay consisting of an additional 25 MRTU library reporting the activity of nuclear receptor super-family members. […] Chemicals were then tested in the CIS and TRANS assays at seven concentrations starting at the MTC and followed by three-fold serial dilutions. These assays were performed by Attagene Inc. (Morrisville NC) under contract to EPA. Detailed description of the methods, data and analysis methods for this dataset will be presented in a separate publication.

[1] = target: T1, ESR1 (estrogen receptor 1) (Homo sapiens, UniProt P03372); experiment: ATG_ERE_CIS: Factorial reporter gene assay (HepG2); type: cell-based; conditions: HepG2
T1 construct: expressed in transfected cells; host or cells: HepG2
T1 sequence (P03372 whole entry): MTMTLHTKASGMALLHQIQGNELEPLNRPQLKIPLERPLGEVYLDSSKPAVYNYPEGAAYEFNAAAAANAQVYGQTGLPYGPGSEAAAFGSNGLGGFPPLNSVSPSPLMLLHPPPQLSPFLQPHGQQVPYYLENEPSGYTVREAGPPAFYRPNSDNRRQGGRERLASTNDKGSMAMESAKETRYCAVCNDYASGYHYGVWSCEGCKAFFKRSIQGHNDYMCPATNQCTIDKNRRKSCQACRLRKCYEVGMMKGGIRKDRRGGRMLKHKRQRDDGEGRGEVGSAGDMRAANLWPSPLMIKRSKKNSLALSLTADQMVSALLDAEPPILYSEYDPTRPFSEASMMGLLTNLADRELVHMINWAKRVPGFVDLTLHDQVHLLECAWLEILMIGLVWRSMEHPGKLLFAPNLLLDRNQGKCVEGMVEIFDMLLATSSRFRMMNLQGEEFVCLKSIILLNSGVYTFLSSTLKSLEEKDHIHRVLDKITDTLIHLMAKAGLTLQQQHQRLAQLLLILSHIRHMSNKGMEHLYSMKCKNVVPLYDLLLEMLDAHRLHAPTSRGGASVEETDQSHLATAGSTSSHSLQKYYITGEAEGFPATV
Procedure, shortened: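 Seven concentrations per chemical, three-fold dilutions down from the MTC, were tested in HepG2 hepatoma cells. Those cells carried a multiple reporter transcription unit library, read either as cis transcription-factor-site reporters or as a trans mammalian one-hybrid panel for nuclear receptors.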

ABCB11 = experiment: CLZD_ABCB11: Change in expression of ABCB11 (primary human hepatocytes); type: cell-based; conditions: 24 hr
Procedure, shortened: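 Five-point concentration series (0.004-40 µM) applied to primary human hepatocytes; 6/24/48 hr timepoints; transcript quantified by multiplexed nuclease protection.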

HMGCS2 = experiment: CLZD_HMGCS2: Change in expression of HMGCS2 (primary human hepatocytes); type: cell-based; conditions: 24 hr, scale not given, looks like -log10 of molar active concentration, 0 = no activity
Description: This is a collection of multiplexed gene expression assays focused on Phase I and II xenobiotic metabolizing enzymes and transporters. Human primary cell cultures were treated with chemicals at 5 concentrations (0.004-40 [drawing 42] M) for 6, 24 and 48 hr. Concentration- and time-response profiles of chemicals were measured by the expression of key nuclear receptor target genes, activities of CYP1A enzymes (EROD), and cell morphology. Fourteen gene targets were monitored by quantitative nuclease protection assay including: six representative cytochrome P-450 genes, four hepatic transporters, three Phase II conjugating enzymes, and one endogenous metabolism gene involved in cholesterol synthesis. The target genes associated with nuclear receptor pathways are as follows: [drawing 43] and [drawing 44] with [drawing 45]; [drawing 46] , [drawing 47] , [drawing 48] , [drawing 49] , [drawing 50] and [drawing 51] with [drawing 52]; [drawing 53] , [drawing 54] , [drawing 55] and [drawing 56] with [drawing 57]; [drawing 58] with [drawing 59]; and [drawing 60] with [drawing 61] . Assays were run in primary human hepatocyte cultures by CellzDirect Invitrogen Inc. (Durham, NC), in collaboration with EPA.
Multiplexed Gene Expression in Human Primary Hepatocytes: This is a collection of multiplexed gene expression assays focused on Phase I and II metabolic enzymes and transporters. […] Fourteen gene targets were monitored by quantitative nuclease protection assay: six representative cytochrome P450 genes, four hepatic transporters, three Phase II conjugating enzymes, and one endogenous metabolism gene involved in cholesterol synthesis. Cells were exposed at 5 concentrations (0.004-40 µM) for 6, 24 or 48 hr. Gene targets are sentinels for five nuclear receptor signaling pathways: AhR, CAR, PXR, FXR, and PPARα. All gene are associated with nuclear receptor pathways: CYP1A1 and CYP1A2 with AHR; ABCB1, ABCG2, CYP2B6, CYP2C9, CYP2C19 and UGT1A1 with CAR; CYP3A4, GSTA2, SLCO1B1 and SULT2A1 with PXR; HMGCS2 with PPARA; and ABCB11 with FXR. […] Detailed description of the methods, data and analysis methods for this dataset will be presented in a separate publication.

PPARa (PPARA) = target: T2, PPARa (PPARA) (Homo sapiens, UniProt Q07869); experiment: NVS_NR_hPPARa: Human PPARa Fluormone Pan-PPAR green (cell-free HTS); type: binding; conditions: scale not given, looks like -log10 of molar active concentration, 0 = no activity
T2 sequence (Q07869 1-468): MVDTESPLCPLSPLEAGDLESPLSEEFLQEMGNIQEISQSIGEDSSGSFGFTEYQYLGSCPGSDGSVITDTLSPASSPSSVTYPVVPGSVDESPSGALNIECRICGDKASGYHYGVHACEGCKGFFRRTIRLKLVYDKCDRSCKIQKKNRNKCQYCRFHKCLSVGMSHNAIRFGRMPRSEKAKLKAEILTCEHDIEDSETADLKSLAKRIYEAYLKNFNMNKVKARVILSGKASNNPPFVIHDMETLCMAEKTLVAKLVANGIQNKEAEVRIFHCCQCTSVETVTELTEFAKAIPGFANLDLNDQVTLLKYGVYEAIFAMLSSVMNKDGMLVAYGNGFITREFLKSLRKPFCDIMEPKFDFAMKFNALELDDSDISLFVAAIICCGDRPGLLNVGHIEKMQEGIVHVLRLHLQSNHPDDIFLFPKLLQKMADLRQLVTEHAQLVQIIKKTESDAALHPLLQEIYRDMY
Description: These are a collection of biochemical assays measuring binding constants and enzyme inhibition values. Chemicals were initially screened at a single concentration in duplicate wells at a concentration of 10 [drawing 63] M for cytochrome P-450 assays and 25 [drawing 64] M for all others. […] These assays were run by Caliper Life Sciences (Hanover, MD) under contract to EPA. Short assay descriptions are available at: http://www.caliperls.com/products/contract-research/in-vitro/.
Cell-free HTS Assays: A collection of biochemical assays measuring binding constants and enzyme inhibition values. […] These assays were run by Caliper Life Sciences (Hanover, MD) under contract to EPA. Short assay descriptions are available at http://www.caliperls.com/products/contract-research/in-vitro/. Values for all endpoints were imported into GeneData Screener (Basel, Switzerland) and normalised to solvent controls from the same plate as the tested compounds and expressed as percent of neutral control. Concentration-response curves were fit in GeneData Screener (Basel, Switzerland) Condeseo module using the Hill equation and AC50 values were determined. […] Detailed description of the methods, data and analysis methods for this dataset are described in a separate publication.

CYP2B6 = experiment: CLZD_CYP2B6: Change in expression of CYP2B6 (primary human hepatocytes); type: cell-based; conditions: 24 hr
Procedure, shortened: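 Cultured primary human hepatocytes treated with chemicals for 6, 24 or 48 hr across five concentrations spanning 0.004-40 µM, then transcript level measured by quantitative nuclease protection in a multiplexed format.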

[2] = scale not given, looks like -log10 of molar active concentration, 0 = no activity

SMILES | ATG_DR4_LXR_CIS (LXR (NR1H3)) | ATG_ERE_CIS [1, 2] | CLZD_ABCB11_24 (ABCB11; [2]) | CLZD_HMGCS2_24 (HMGCS2) | NVS_NR_hPPARa (PPARa (PPARA)) | CLZD_CYP2B6_24 (CYP2B6; [2]) | CLZD_CYP2B6_24 (CYP2B6) | CLZD_ABCB11_24 (ABCB11) | ATG_ERE_CIS [1]
C=CCOC(=O)C(C)(C)OC(=O)c1cc(-n2c(=O)cc(C(F)(F)F)n(C)c2=O)ccc1Cl [r47] | 0 | 0 | 0 | 0 | 0 |  |  |  | 
CC1=C(C(=O)Nc2ccccc2)SCCO1 [r53] | 0 | 0 | 0 | 0 | 0 | 4.923 |  |  | 
O=C(Nc1ccccc1-c1ccc(Cl)cc1)c1cccnc1Cl [r42] | 0 | 0 | 0 | 0 | 0 | 5.164 |  |  | 
COc1ccc(-c2ccccc2)cc1NNC(=O)OC(C)C [r38] | 0 | 0 | 0 | 0 | 0 | 5.354 |  |  | 
N#Cc1cc(Br)c(O)c(Br)c1 [r44] | 0 | 0 | 0 | 0 | 0 | 0 |  |  | 
CC(C)OC(=O)Nc1cccc(Cl)c1 [r59] | 0 | 0 | 0 | 0 | 0 | 4.931 |  |  | 
CCC(C)n1c(=O)[nH]c(C)c(Br)c1=O (stereo not drawn) [r43] | 0 | 0 | 0 | 0 | 0 | 4.936 |  |  | 
COc1nc(C)nc(NC(=O)NS(=O)(=O)c2ccccc2Cl)n1 [r62] | 0 | 0 | 0 | 0 | 0 | 0 |  |  | 
CC(C)N1C(=O)c2ccccc2NS1(=O)=O [r37] | 4.284 | 0 | 0 | 0 | 0 | 0 |  |  | 
CC(C)Oc1cc(-n2nc(C(C)(C)C)oc2=O)c(Cl)cc1Cl [row 225] |  |  |  |  |  |  | 6.222 |  | 
CCc1ccc(C(=O)NN(C(=O)c2cc(C)cc(C)c2)C(C)(C)C)cc1 [r290] |  |  |  |  |  |  | 5.246 |  | 
CCOC(=O)C(Cl)Cc1cc(-n2nc(C)n(C(F)F)c2=O)c(F)cc1Cl (stereo not drawn) [r54] | 0 | 0 | 0 | 0 | 0 | 5.057 |  |  | 
CCC(C)Nc1c([N+](=O)[O-])cc(C(C)(C)C)cc1[N+](=O)[O-] (stereo not drawn) [r48] | 0 | 0 | 0 | 0 | 0 | 5.323 |  |  | 
CSc1nc(NC(C)C)nc(NC(C)C)n1 [r256] |  |  |  |  |  |  | 5.237 |  | 
O=C1C2CC=CCC2C(=O)N1SC(Cl)(Cl)Cl (stereo not drawn) [r51] | 0 | 0 | 0 | 0 | 0 | 0 |  |  | 
CC(C)N1C(=O)N(c2ccccc2)CS/C1=N\C(C)(C)C [r45] | 0 | 0 | 0 | 0 | 0 | 5.247 |  |  | 
COc1cccc(C(=O)NN(C(=O)c2cc(C)cc(C)c2)C(C)(C)C)c1C [row 202] |  |  |  |  |  |  | 5.305 |  | 
N#Cc1c(Cl)c(Cl)c(Cl)c(C#N)c1Cl [r58] | 0 | 0 | 0 | 0 | 0 | 0 |  |  | 
C#CCC1=C(C)[C@H](OC(=O)[C@H]2[C@H](C=C(C)C)C2(C)C)CC1=O [r249] |  |  |  |  |  |  | 5.011 |  | 
CC(C)(c1ccc(O)cc1)c1ccc(O)cc1 [r40] | 0 | 6.194 | 0 | 0 | 0 | 0 |  |  | 
Cc1c(COC(=O)C2C(/C=C(\Cl)C(F)(F)F)C2(C)C)cccc1-c1ccccc1 (stereo not drawn) [r39] | 0 | 0 | 0 | 0 | 0 | 5.042 |  |  | 
CCc1nn(C)c(C(=O)NCc2ccc(C(C)(C)C)cc2)c1Cl [r291] |  |  |  |  |  |  | 5.278 | 4.551 | 
CCCC1COC(Cn2cncn2)(c2ccc(Cl)cc2Cl)O1 (stereo not drawn) [r262] |  |  |  |  |  |  | 6.312 |  | 
CCc1cccc(C)c1N(C(=O)CCl)C(C)COC (stereo not drawn) [row 208] |  |  |  |  |  |  | 5.27 |  | 
Cc1ccccc1CO[C@@H]1C[C@@]2(C(C)C)CC[C@]1(C)O2 [r64] | 0 |  | 0 | 0 | 0 | 0 |  |  | 
CCCN(CCC)c1c([N+](=O)[O-])cc(C(F)(F)F)c(N)c1[N+](=O)[O-] [r252] |  |  |  |  |  |  | 5.057 |  | 
CNC(=O)Oc1cccc2ccccc12 [r52] | 0 | 4.244 | 0 | 0 | 0 |  |  |  | 
CCN(CC)C(=O)C(C)Oc1cccc2ccccc12 (stereo not drawn) [row 219] |  |  |  |  |  |  | 4.599 |  | 4.481
CC(C)=CC1C(C(=O)OCc2coc(Cc3ccccc3)c2)C1(C)C (stereo not drawn) [r280] |  |  |  |  |  |  | 5.057 |  | 
OB(O)O [r41] | 0 | 0 | 0 | 0 | 0 |  |  |  | 
